In one experiment the target is T1, IL-23R (Homo sapiens, UniProt Q5VWK5).
T1 construct: HEK293 cells containing IL-23R, IL-12Rβ1 and a firefly luciferase reporter gene driven by a STAT-inducible promoter (Promega); host or cells: HEK293
T1 sequence (Q5VWK5 24-629): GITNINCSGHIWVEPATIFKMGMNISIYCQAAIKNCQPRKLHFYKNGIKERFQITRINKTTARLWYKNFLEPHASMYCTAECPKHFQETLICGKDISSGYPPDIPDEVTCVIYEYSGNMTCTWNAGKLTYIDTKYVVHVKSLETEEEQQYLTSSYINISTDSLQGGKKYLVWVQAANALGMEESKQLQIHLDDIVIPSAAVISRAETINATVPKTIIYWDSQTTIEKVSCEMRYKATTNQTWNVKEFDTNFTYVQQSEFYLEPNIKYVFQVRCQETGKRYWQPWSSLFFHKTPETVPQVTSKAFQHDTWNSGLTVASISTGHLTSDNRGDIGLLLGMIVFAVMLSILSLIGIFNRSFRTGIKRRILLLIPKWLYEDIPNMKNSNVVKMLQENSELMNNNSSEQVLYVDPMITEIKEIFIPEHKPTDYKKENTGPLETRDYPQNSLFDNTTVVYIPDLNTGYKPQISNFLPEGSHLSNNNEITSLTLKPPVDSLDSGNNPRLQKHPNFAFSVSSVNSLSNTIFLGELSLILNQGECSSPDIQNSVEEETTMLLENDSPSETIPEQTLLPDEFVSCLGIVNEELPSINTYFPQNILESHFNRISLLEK
Description: IL23R Reporter Assay. In kind it is cell-based. To be noted: HEK293 cells containing IL-23R, IL-12Rβ1 and STAT-inducible firefly luciferase reporter; 10 ng/mL IL-23 (EC90); 5 h. In outline:
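HEK293 cells carrying IL-23R, IL-12Rβ1 and a STAT-driven firefly luciferase reporter (4000 cells/well) received compound, then 10 ng/mL IL-23 solution (EC90), and were incubated for 5 h at 37° C. BioGlo luminescence was normalised to IL-23 alone (0%) and 30 μM control inhibitor (100%). IC50 came from a 4-parameter Hill fit.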

For experiment [1], the system named is IL-23-stimulated phosphorylated STAT3 in peripheral blood mononuclear cells (PBMCs). Description: PBMC pSTAT3 Assay. Type of experiment: cell-based. To be noted: PBMCs from healthy donors; 30 min preincubation with peptide; IL-23 5 ng/mL for 30 min; phospho-STAT3 by MSD. The gist of the method:
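Healthy-donor PBMCs expanded 4 days on anti-CD3 with 100 ng/mL IL-1β, starved ~4 h in RPMI-0.1% BSA, preincubated 30 min with peptide, then stimulated 30 min at 37 °C with 5 ng/mL IL-23. Lysate pSTAT3 measured by MSD phospho-STAT panel; IC50 derived.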

*1 amine or outer side, *2 acyl side, *3 side chain or, on linkers, in order; H or OH if unused. Where a SMILES comes first, the peptide text is derived from it. Bridges are numbered along the chain shown (N, C = ends). Roman numbers before positions name the chains, in order. Side-chain parts run from the residue outwards. [ ]: non-standard residue; d: D form. The star is where a group is joined. ξ: configuration not given here. X38 = O=C(O)CCCCCCCCCCCCCCCCC(=O)N[C@@H](CCC(=O)NCCOCCOCC(=O)NCCOCCCCC(=O)*)C(=O)O; X19 = CC(C)(S[*:2])[C@H](N[*:3])C(=O)C[C@@H](Cc1ccc(OCCN)cc1)C(=O)[*:1]; NH(CH2CH2O)2CH2CH2NMe3+ = C[N+](C)(C)CCOCCOCCN*; Trp(7-Me) = Cc1cccc2c(C[C@H](N)C(=O)O)c[nH]c12; C18 diacid = O=C(O)CCCCCCCCCCCCCCCCC(=O)*; γGlu = O=C(O)[C@H](CCC(=O)[*:2])N[*:1]; 2Nal = N[C@@H](Cc1ccc2ccccc2c1)C(=O)O; AEF = NCCOc1ccc(C[C@H](N)C(=O)O)cc1; 3Pal = N[C@@H](Cc1cccnc1)C(=O)O; Lys(Me) = CNCCCC[C@H](N)C(=O)O; Pen = CC(C)(S)[C@H](N)C(=O)O; Thp = NC1(C(=O)O)CCOCC1; X1 = C[N+](C)(C)CCCCC*; ξN = NC(=O)CC(N)C(=O)O; AEEA = NCCOCCOCC(=O)O; ξK = NCCCCC(N)C(=O)O; Sar = CNCC(=O)O

This passage reports IC50 results from patent publication US20260250320A1, “LIPIDATED PEPTIDE INHIBITORS OF INTERLEUKIN-23 RECEPTOR” (Janssen Pharmaceutica NV, priority 2023, published 2026).

The IC50 is the concentration that inhibits the measured activity by half. Low readings indicate greater potency, high ones weaker potency. With `CC(=O)NCCCC[C@@H]1NC(=O)[C@H](Cc2c[nH]c3c(C)cccc23)NC(=O)[C@H]([C@@H](C)O)NC(=O)[C@H](CC(N)=O)NC(=O)[C@@H](NC(=O)[C@@H](CCCCNC(=O)COCCOCCNC(=O)COCCOCCNC(=O)CC[C@H](NC(=O)CCCCCCCCCCCCCCCCC(=O)O)C(=O)O)NC(C)=O)C(C)(C)SSC(C)(C)[C@@H](C(=O)N[C@@H](Cc2ccc(OCCN)cc2)C(=O)N[C@@H](Cc2ccc3ccccc3c2)C(=O)NC2(C(=O)N[C@@H](CCC(=O)O)C(=O)N[C@@H](CC(N)=O)C(=O)N[C@@H](Cc3cccnc3)C(=O)N(C)CC(N)=O)CCOCC2)NC1=O` [compound 58, MeCO-k(PEG2PEG2gEC18OH)-Pen(3)-N-T-7MeW-K(Ac)-Pen(3)-AEF-2Nal-THP-E-N-3Pya-Sar-CONH2] (Ac-[dK]([AEEA-AEEA-γGlu-C18 diacid])[Pen]NT[Trp(7-Me)]K(Ac)[Pen][AEF][2Nal][Thp]EN[3Pal][Sar]-NH2; disulfide 2-7), the IC50 on IL-23R is 50 to 500 nM; in experiment [1], below 0.5 nM.
For `CC(=O)N[C@H](CCCNC(=N)N)C(=O)N[C@@H]1C(=O)N[C@@H](CC(N)=O)C(=O)N[C@@H]([C@@H](C)O)C(=O)N[C@@H](Cc2c[nH]c3c(C)cccc23)C(=O)NC(CCCCNC(=O)COCCOCCNC(=O)COCCOCCNC(=O)CC[C@H](NC(=O)CCCCCCCCCCCCCCCCC(=O)O)C(=O)O)C(=O)N[C@H](C(=O)N[C@@H](Cc2ccc(OCCN)cc2)C(=O)N[C@@H](Cc2ccc3ccccc3c2)C(=O)NC2(C(=O)N[C@@H](CCC(=O)O)C(=O)N[C@@H](CC(N)=O)C(=O)N[C@@H](Cc3cccnc3)C(=O)N(C)CC(N)=O)CCOCC2)C(C)(C)SSC1(C)C` (stereo partly drawn) [compound 59, MeCO-r-Pen(3)-N-T-7MeW-K(PEG2PEG2gEC18OH)-Pen(3)-AEF-2Nal-THP-E-N-3Pya-Sar-CONH2] (Ac-[dR][Pen]NT[Trp(7-Me)][ξK]([AEEA-AEEA-γGlu-C18 diacid])[Pen][AEF][2Nal][Thp]EN[3Pal][Sar]-NH2; disulfide 2-7) the same measures were 50 to 500 nM and below 0.5 nM.
In the same order, the values of `CC(=O)NCCCC[C@@H]1NC(=O)[C@H](Cc2c[nH]c3c(C)cccc23)NC(=O)[C@H]([C@@H](C)O)NC(=O)[C@H](CC(N)=O)NC(=O)[C@@H](NC(=O)[C@@H](CCCNC(=N)N)NC(=O)COCCOCCNC(=O)COCCOCCNC(=O)CC[C@H](NC(=O)CCCCCCCCCCCCCCCCC(=O)O)C(=O)O)C(C)(C)SSC(C)(C)[C@@H](C(=O)N[C@@H](Cc2ccc(OCCN)cc2)C(=O)N[C@@H](Cc2ccc3ccccc3c2)C(=O)NC2(C(=O)N[C@@H](CCC(=O)O)C(=O)N[C@@H](CC(N)=O)C(=O)N[C@@H](Cc3cccnc3)C(=O)N(C)CC(N)=O)CCOCC2)NC1=O` [compound 60, HOC18gEPEG2PEG2CO-r-Pen(3)-N-T-7MeW-K(Ac)-Pen(3)-AEF-2Nal-THP-E-N-3Pya-Sar-CONH2] ({C18 diacid-γGlu-AEEA-AEEA}-[dR][Pen]NT[Trp(7-Me)]K(Ac)[Pen][AEF][2Nal][Thp]EN[3Pal][Sar]-NH2; disulfide 2-7) are below 50 nM and below 0.5 nM.
In the same order, the values of `CC(=O)NCCCC[C@@H]1NC(=O)[C@H](Cc2c[nH]c3c(C)cccc23)NC(=O)[C@H]([C@@H](C)O)NC(=O)[C@H](CC(N)=O)NC(=O)[C@@H](NC(=O)COCCOCCNC(=O)COCCOCCNC(=O)CC[C@H](NC(=O)CCCCCCCCCCCCCCCCC(=O)O)C(=O)O)C(C)(C)SSC(C)(C)[C@@H](C(=O)N[C@@H](Cc2ccc(OCCN)cc2)C(=O)N[C@@H](Cc2ccc3ccccc3c2)C(=O)NC2(C(=O)N[C@@H](CCC(=O)O)C(=O)N[C@@H](CC(N)=O)C(=O)N[C@@H](Cc3cccnc3)C(=O)N(C)CC(N)=O)CCOCC2)NC1=O` [compound 61, HOC18gEPEG2PEG2CO-Pen(3)-N-T-7MeW-K(Ac)-Pen(3)-AEF-2Nal-THP-E-N-3Pya-Sar-CONH2] are below 50 nM and below 0.5 nM.
In the case of `CC(=O)NCCCC[C@@H]1NC(=O)[C@H](Cc2c[nH]c3c(C)cccc23)NC(=O)[C@H]([C@@H](C)O)NC(=O)[C@H](CC(N)=O)NC(=O)[C@@H](NC(=O)[C@H](CCCCNC(=O)COCCOCCNC(=O)COCCOCCNC(=O)CC[C@H](NC(=O)CCCCCCCCCCCCCCCCC(=O)O)C(=O)O)NC(C)=O)C(C)(C)SSC(C)(C)[C@@H](C(=O)N[C@@H](Cc2ccc(OCCCCC[N+](C)(C)C)cc2)C(=O)N[C@@H](Cc2ccc3ccccc3c2)C(=O)NC2(C(=O)N[C@@H](CCCCNC(C)=O)C(=O)NC(CC(N)=O)C(=O)N[C@@H](Cc3cccnc3)C(=O)N(C)CC(N)=O)CCOCC2)NC1=O` (stereo partly drawn) [compound 62, MeCO-K(PEG2PEG2gEC18OH)-Pen(3)-N-T-7MeW-K(Ac)-Pen(3)-TMAPF-2Nal-THP-K(Ac)-3-Pya-Sar-CONH2] (Ac-K([AEEA-AEEA-γGlu-C18 diacid])[Pen]NT[Trp(7-Me)]K(Ac)[Pen]Y(X1)[2Nal][Thp]K(Ac)[ξN][3Pal][Sar]-NH2; disulfide 2-7), the half-inhibitory concentration (IC50) against IL-23R was below 50 nM; in experiment [1], below 0.5 nM.
Regarding `CC(=O)N[C@@H](CCCCNC(=O)CCCCOCCNC(=O)COCCOCCNC(=O)CC[C@H](NC(=O)CCCCCCCCCCCCCCCCC(=O)O)C(=O)O)C(=O)N[C@@H]1C(=O)N[C@@H](CC(=O)N(C)C)C(=O)N[C@@H]([C@@H](C)O)C(=O)N[C@@H](Cc2c[nH]c3c(C)cccc23)C(=O)N[C@@H](CCCCN(C)C(C)=O)C(=O)N[C@H](C(=O)N[C@@H](Cc2ccc(OCCCCC[N+](C)(C)C)cc2)C(=O)N[C@@H](Cc2ccc3ccccc3c2)C(=O)NC2(C(=O)N[C@@H](CCCCN(C)C(C)=O)C(=O)N[C@@H](CC(N)=O)C(=O)N[C@@H](Cc3cccnc3)C(=O)N(C)CC(N)=O)CCOCC2)C(C)(C)SSC1(C)C` [compound 63, MeCO-K(PEG2PEG2gEC18OH)-Pen(3)-N(N(Me)2)-T-7MeW-K(NMeAc)-Pen(3)-TMAPF-2Nal-THP-K(NMeAc)-N-3Pya-Sar-CONH2] (Ac-K(X38)[Pen]D(NMe2)T[Trp(7-Me)][Lys(Me)](Ac)[Pen]Y(X1)[2Nal][Thp][Lys(Me)](Ac)N[3Pal][Sar]-NH2; disulfide 2-7), the figures for the IC50 (on IL-23R; in experiment [1]) were at least 500 nM and at least 5 nM, respectively.
In the case of `CC(=O)NCCCC[C@@H]1NC(=O)[C@H](Cc2c[nH]c3c(C)cccc23)NC(=O)[C@H]([C@@H](C)O)NC(=O)[C@H](CC(N)=O)NC(=O)[C@@H](NC(C)=O)C(C)(C)SSC(C)(C)[C@@H](C(=O)C[C@@H](Cc2ccc(OCCN)cc2)C(=O)N[C@@H](Cc2ccc3ccccc3c2)C(=O)NC2(C(=O)N[C@@H](CCCCNC(=O)COCCOCCNC(=O)COCCOCCNC(=O)CC[C@H](NC(=O)CCCCCCCCCCCCCCCCC(=O)O)C(=O)O)C(=O)N[C@@H](CC(N)=O)C(=O)N[C@@H](Cc3cccnc3)C(=O)N(C)CC(=O)NCCOCCOCC[N+](C)(C)C)CCOCC2)NC1=O` [compound 64, MeCO-Pen(3)-N-T-7MeW-K(Ac)-Pen(3)-AEF-2Nal-THP-K(PEG2PEG2gEC18OH)-N-3Pya-Sar-CONH(PEG3a)] (I: [2Nal][Thp]K([AEEA-AEEA-γGlu-C18 diacid])N[3Pal][Sar]-{NH(CH2CH2O)2CH2CH2NMe3+} / II: Ac-[Pen]NT[Trp(7-Me)]K(Ac); linker I:N-II:1-II:C via X19), the IC50 at IL-23R was at least 500 nM; in experiment [1], 0.5 to 5 nM.
In the same order, the values of `CC(=O)NCCCC[C@@H]1NC(=O)[C@H](Cc2c[nH]c3c(C)cccc23)NC(=O)[C@H]([C@@H](C)O)NC(=O)[C@H](CCCCNC(=O)COCCOCCNC(=O)COCCOCCNC(=O)CC[C@H](NC(=O)CCCCCCCCCCCCCCCCC(=O)O)C(=O)O)NC(=O)[C@@H](NC(=O)[C@@H](CCCNC(=N)N)NC(C)=O)C(C)(C)SSC(C)(C)[C@@H](C(=O)N[C@@H](Cc2ccc(OCCN)cc2)C(=O)N[C@@H](Cc2ccc3ccccc3c2)C(=O)NC2(C(=O)N[C@@H](CCC(=O)O)C(=O)N[C@@H](CC(N)=O)C(=O)N[C@@H](Cc3cccnc3)C(=O)N(C)CC(=O)NCCOCCOCC[N+](C)(C)C)CCOCC2)NC1=O` [compound 66, MeCO-r-Pen(3)-K(PEG2PEG2gEC18OH)-T-7MeW-K(Ac)-Pen(3)-AEF-2Nal-THP-E-N-3Pya-Sar-CONH(PEG3a)] (Ac-[dR][Pen]K([AEEA-AEEA-γGlu-C18 diacid])T[Trp(7-Me)]K(Ac)[Pen][AEF][2Nal][Thp]EN[3Pal][Sar]-{NH(CH2CH2O)2CH2CH2NMe3+}; disulfide 2-7) are at least 500 nM and 0.5 to 5 nM.
